Values of other authors as cited in patent US20190275119A1, “PROOXIDANT CANCER CHEMO-SUPPRESSORS AND CHEMO-PROTECTORS AND METHODS OF USE RELATED THERETO” (priority 2016, published 2019).

Tested on: tumor cells
Settings: low concentrations (about 10 μM)

SMILES | growth inhibition and apoptosis of tumor cells
O=CC=Cc1ccccc1OC(=O)c1ccccc1 [BCA, 2′-benzoyl-oxycinnamaldehyde] | inhibit growth and induce apoptosis of tumor cells
O=CC=Cc1ccccc1O [HCA, 2′-hydroxycinnamaldehyde] | inhibit growth and induce apoptosis of tumor cells
